Literature values as cited in patent US6821541B2, “Anaerobic tea steeper and method of use” (priority 2002, dated 2004).
Where two headings read alike, the source gives them in different places. Blank lines part the entries; values can stand above or below the molecule they belong to.

Tests used:
[1] = tested on: canine lymphoma (lymphosarcoma); settings: dogs with lymphoma
[2] = for stability in tea drinks: room temperature

Molecule: COc1cccc2c1C(=O)c1c(O)c3c(c(O)c1C2=O)C[C@@](O)(C(=O)CO)C[C@@H]3O[C@H]1C[C@H](N)[C@H](O)[C@H](C)O1 [Doxorubicin]
duration of remission ([1]; drug alone, guideline value): 18-29 weeks

stability in tea drinks [2]: generally stable
Molecule: Oc1cc(O)c2c(c1)O[C@H](c1ccc(O)c(O)c1)[C@H](O)C2 [EC, (−) epicatechin]

Molecule: C[C@]12C=CC(=O)C=C1CC[C@@H]1[C@@H]2C(=O)C[C@@]2(C)[C@H]1CC[C@]2(O)C(=O)CO [Prednisone]
duration of remission ([1]; guideline values): about 30 days

stability in tea drinks [2]: generally stable
Molecule: O=C(O[C@@H]1Cc2c(O)cc(O)cc2O[C@@H]1c1ccc(O)c(O)c1)c1cc(O)c(O)c(O)c1 [ECG, (−) epicatechin gallate]

stability in aqueous solution ([2]; 4° C., 24 hours, pH 3-9): stable | level remaining after degradation ([2]; 24 hours at 50° C. and pH 5): below 80 % of the initial concentration | stability in tea drinks [2]: generally stable
Molecule: (−) epigallocatechin gallate [EGCG]
